# Test: A: acetonitrile + 0.1% formic acid + 10 mM ammonium formate; B: 5% water + 95% acetonitrile + 0.1% formic acid + 10 mM ammonium formate; gradient (min/%B) 0/10 2/10 22/100 27/100 27.1/10
# Settings: stereoisomer not certain
row,LC retention time [min],Compound
1,1.22,O=c1cc(CO)occ1O [Kojic acid]
2,3.56,O=C(O)c1cc(=O)c2ccccc2[nH]1 [Kynurenic acid]
3,5.85,O=C(O)C1CCCCN1 (stereo not drawn) [L(-)-Pipecolinic acid]
4,5.36,N[C@@H](Cc1c[nH]c2ccc(O)cc12)C(=O)O [L-5-Hydroxytryptophan]
5,7.92,Cn1cncc1CC(NC(=O)CCN)C(=O)O [L-Anserine]
6,7.48,NC(N)=NCCC[C@H](N)C(=O)O [L-Arginine]
7,6.65,NC(=O)C[C@H](N)C(=O)O [L-Asparagine]
8,6.22,C[N+](C)(C)C[C@H](O)CC(=O)[O-] [L-Carnitine]
9,7.75,NCCC(=O)NC(Cc1cnc[nH]1)C(=O)O [L-Carnosine]
10,6.76,NC(=O)NCCC[C@H](N)C(=O)O [L-Citrulline]
11,6.79,N[C@@H](CS(=O)(=O)O)C(=O)O [L-Cysteic acid]
12,8.16,N[C@@H](CSSC[C@H](N)C(=O)O)C(=O)O [L-Cystine]
13,6.06,N[C@@H](Cc1ccc(O)c(O)c1)C(=O)O [L-Dopa]
14,6.54,NC(=O)CC[C@H](N)C(=O)O [L-Glutamine]
15,8.69,NC(CCC(=O)NC(CSSCC(NC(=O)CCC(N)C(=O)O)C(=O)NCC(=O)O)C(=O)NCC(=O)O)C(=O)O [L-Glutathione oxidized]
16,7.03,NC(CCC(=O)NC(CS)C(=O)NCC(=O)O)C(=O)O [L-Glutathione reduced]
17,7.73,N[C@@H](Cc1cnc[nH]1)C(=O)O [L-Histidine]
18,7.05,N[C@H](CO)Cc1cnc[nH]1 [L-Histidinol]
19,7.39,NC(N)=NCCCC[C@H](N)C(=O)O [L-Homoarginine]
20,6.59,NC(=O)NCCCC[C@H](N)C(=O)O [L-Homocitrulline]
21,7.57,N[C@@H](CCSSCC[C@H](N)C(=O)O)C(=O)O [L-Homocystine]
22,6.32,N[C@@H](CCO)C(=O)O [L-Homoserine]
23,4.67,Nc1ccccc1C(=O)CC(N)C(=O)O [L-Kynurenine]
24,5.01,CC(C)C[C@H](N)C(=O)O [L-Leucine]

row,LC retention time [min],Compound
1,5.82,CC(C)C[C@H](N)C(=O)N[C@@H](C)C(=O)O [L-Leucyl-L-alanine]
2,7.67,NCCCC[C@H](N)C(=O)O [L-Lysine]
3,5.97,CSCC[C@H](N)C(=O)O [L-Methionine]
4,3.88,CN1CCCC1c1cccnc1 [L-Nicotine]
5,4.99,CCCC[C@H](N)C(=O)O [L-Norleucine]
6,5.65,CCC[C@H](N)C(=O)O [L-Norvaline]
7,4.83,N[C@@H](Cc1ccccc1)C(=O)O [L-Phenylalanine]
8,6.81,O=C1CC[C@@H](C(=O)O)N1 [L-Pyroglutamic acid]
9,6.56,N[C@@H](CO)C(=O)O [L-Serine]
10,6.22,C[C@@H](O)[C@H](N)C(=O)O [L-Threonine]
11,5.62,N[C@@H](Cc1ccc(O)cc1)C(=O)O [L-Tyrosine]
12,5.92,CC(C)[C@H](N)C(=O)O [L-Valine]
13,6.6,OCC1OC(OC2C(CO)OC(O)(CO)C2O)C(O)C(O)C1O (stereo not drawn) [Lactulose]
14,0.475,Cc1c(OCC(F)(F)F)ccnc1CS(=O)c1nc2ccccc2[nH]1 (stereo not drawn) [Lansoprazole]
15,0.455,CCCCCCCCCCCCOC(=O)c1cc(O)c(O)c(O)c1 [Lauryl gallate]
16,0.421,CC(=O)CCC(=O)O [Levulinic acid]
17,6.87,NCCCCC(NC(CCc1ccccc1)C(=O)O)C(=O)N1CCCC1C(=O)O (stereo not drawn) [Lisinopril]
18,0.433,CCOC(=O)N1CCC(=C2c3ccc(Cl)cc3CCc3cccnc32)CC1 [Loratadine]
19,0.419,CCC(C)C(=O)OC1CC(C)C=C2C=CC(C)C(CCC3CC(O)CC(=O)O3)C21 (stereo not drawn) [Lovastatin]
20,0.593,O=c1cc(-c2ccc(O)c(O)c2)oc2cc(O)cc(O)c12 [Luteolin]
21,6.59,OCC(O)C(O)C(OC1OC(CO)C(O)C(O)C1O)C(O)CO (stereo not drawn) [Maltitol]
22,7.44,OCC1OC(OC2C(CO)OC(OC3C(CO)OC(O)C(O)C3O)C(O)C2O)C(O)C(O)C1O (stereo not drawn) [Maltotriose]
23,0.429,CC(=O)C1(O)CCC2C3CC(C)C4=CC(=O)CCC4(C)C3CCC21C (stereo not drawn) [Medroxyprogesterone]
24,0.437,Cc1cccc(Nc2ccccc2C(=O)O)c1C [Mefenamic acid]

row,LC retention time [min],Compound
1,0.468,COc1ccc2[nH]cc(CCNC(C)=O)c2c1 [Melatonin]
2,7.08,OCC1OC(OCC2OC(O)C(O)C(O)C2O)C(O)C(O)C1O (stereo not drawn) [Melibiose]
3,0.416,Cc1cnc(NC(=O)C2=C(O)c3ccccc3S(=O)(=O)N2C)s1 [Meloxicam]
4,1.94,CC12CC3CC(C)(C1)CC(N)(C3)C2 [Memantine]
5,3.67,CN(C)C(=N)N=C(N)N [Metformin]
6,0.431,COC(=O)Cc1c[nH]c2ccccc12 [Methyl 3-indolyacetate]
7,0.625,COC(=O)c1cccnc1 [Methyl nicotinate]
8,0.415,COC(=O)Cc1ccc(C(C)(C)C)cc1 [Methyl p-tert-butylphenylacetate]
9,0.562,COC(=O)CCCC(=O)O [Monomethyl glutarate]
10,8.5,CC(=O)NCCCNCCCCNCCCN [N1-Acetylspermine]
11,7.25,CC(=O)NCCCCNCCCN [N8-Acetylspermidine]
12,0.564,CNC(=O)c1cccnc1 [N'-Methylnicotinamide]
13,5.8,"CN(C)CC(=O)O [N,N-Dimethylglycine]"
14,1.25,O=C(O)CNC(=O)CCc1ccccc1 [N-(3-Phenylpropionyl)glycine]
15,4.61,CC(=O)NCCCCCN [N-(5-Aminopentyl)acetamide]
16,0.492,CC(=O)NCCc1c[nH]c2ccc(O)cc12 [N-Acetyl-5-hydroxytryptamine]
17,4.98,CC(=O)N1CCC[C@H]1C(=O)O [N-Acetyl-L-Proline]
18,4.36,CC(=O)N[C@@H](C)C(=O)O [N-Acetyl-L-alanine]
19,6.21,CC(=O)N[C@@H](CCCN=C(N)N)C(=O)O [N-Acetyl-L-arginine]
20,3.49,CC(=O)N[C@@H](CS)C(=O)O [N-Acetyl-L-cysteine]
21,1.18,CC(=O)N[C@@H](CC(C)C)C(=O)O [N-Acetyl-L-leucine]
22,1.97,CSCC[C@H](NC(C)=O)C(=O)O [N-Acetyl-L-methionine]
23,6.58,CC(=O)N[C@@H](CCCN)C(=O)O [N-Acetyl-L-ornithine]
24,1.32,CC(=O)N[C@@H](Cc1ccccc1)C(=O)O [N-Acetyl-L-phenylalanine]

row,LC retention time [min],Compound
1,2.85,CC(=O)N[C@@H](Cc1ccc(O)cc1)C(=O)O [N-Acetyl-L-tyrosine]
2,5.85,CC(=O)NC(CCC(=O)O)C(=O)O (stereo not drawn) [N-Acetylglutamic acid]
3,5.64,CC(=O)NCC(=O)O [N-Acetylglycine]
4,6.84,CC(=O)NC1C(O)CC(O)(C(=O)O)OC1C(O)C(O)CO (stereo not drawn) [N-Acetylneuraminic acid]
5,2.34,CSCC[C@H](NC=O)C(=O)O [N-Formyl-L-methionine]
6,1.63,CC(C)CC(=O)NCC(=O)O [N-Iso valerylglycine]
7,7.02,CN[C@H](CC(=O)O)C(=O)O [N-Methyl-D-aspartic acid]
8,6.54,CN[C@@H](CCC(=O)O)C(=O)O [N-Methyl-L-glutamic acid]
9,1.97,CC=C(C)C(=O)NCC(=O)O [N-Tiglylglycine]
10,5.85,CC(=O)NC(CCC(N)=O)C(=O)O [N-alpha-Acetyl-L-glutamine]
11,6.17,CC(=O)NC(CCCCN)C(=O)O [N-alpha-Acetyl-L-lysine]
12,7.5,NC(=O)C1=CN(C2OC(COP(=O)(O)OP(=O)(O)OCC3OC(n4cnc5c(N)ncnc54)C(O)C3O)C(O)C2O)C=CC1 (stereo not drawn) [NADH]
13,8.7,NC(=O)c1ccc[n+](C2OC(COP(=O)(O)OP(=O)([O-])OCC3OC(n4cnc5c(N)ncnc54)C(OP(=O)(O)O)C3O)C(O)C2O)c1 (stereo not drawn) [NADP]
14,7.82,NC(=O)c1ccc[n+](C2OC(COP(=O)(O)OP(=O)([O-])OCC3OC(n4cnc5c(N)ncnc54)C(O)C3O)C(O)C2O)c1 (stereo not drawn) [NAD]
15,3.67,CC1OC(OC2C(Oc3cc(O)c4c(c3)OC(c3ccc(O)cc3)CC4=O)OC(CO)C(O)C2O)C(O)C(O)C1O (stereo not drawn) [Naringin]
16,0.596,Cc1ccnc2c1NC(=O)c1cccnc1N2C1CC1 [Nevirapine]
17,0.678,NC(=O)c1cccnc1 [Niacinamide]
18,0.714,COC(=O)C1=C(C)NC(C)=C(C(=O)OCCN(C)Cc2ccccc2)C1c1cccc([N+](=O)[O-])c1 (stereo not drawn) [Nicardipine]
19,2.44,O=C(O)c1cccnc1 [Nicotinic acid]
20,0.418,COC(=O)C1=C(C)NC(C)=C(C(=O)OC)C1c1ccccc1[N+](=O)[O-] [Nifedipine]
21,3.03,CNC(=C[N+](=O)[O-])NCCSCc1csc(CN(C)C)n1 [Nizatidine]
22,5.88,CC(=O)O[C@H](CC(=O)[O-])C[N+](C)(C)C [O-Acetyl-L-carnitine]
23,7.28,NCCOP(=O)(O)O [O-Phosphorylethanolamine]

row,Compound,LC retention time [min]
1,COc1ccc(OC)c(C(O)C(C)N)c1 (stereo not drawn) [Methoxamine],2.4
2,CNCCc1ccc(O)cc1 [N-Methyltyramine],2.53
3,O=C(O)CNC(=O)c1cccnc1 [Nicotinuric acid],5.19

# Source: the RepoRT retention time repository
